Experimental data: publication PMC12753220, “A new amidohydrolase and β-oxidation–like pathway for piperine catabolism in soil actinomycetes” (The Journal of Biological Chemistry, 2025)

Target: T1, PipM (piperine hydrolase) (Rhodococcus erythropolis, UniProt Z9TMQ3P3F8)
T1 construct: full length, no signal peptide, untagged (pET24a(+)-pipM), E. coli Rosetta2 (DE3); ORF 1389 nt (462 residues deduced), ~50 kDa monomer, homotetramer ~220 kDa; N-terminus of native protein NSFALSNV
T1 sequence (Z9TMQ3P3F8 1-462): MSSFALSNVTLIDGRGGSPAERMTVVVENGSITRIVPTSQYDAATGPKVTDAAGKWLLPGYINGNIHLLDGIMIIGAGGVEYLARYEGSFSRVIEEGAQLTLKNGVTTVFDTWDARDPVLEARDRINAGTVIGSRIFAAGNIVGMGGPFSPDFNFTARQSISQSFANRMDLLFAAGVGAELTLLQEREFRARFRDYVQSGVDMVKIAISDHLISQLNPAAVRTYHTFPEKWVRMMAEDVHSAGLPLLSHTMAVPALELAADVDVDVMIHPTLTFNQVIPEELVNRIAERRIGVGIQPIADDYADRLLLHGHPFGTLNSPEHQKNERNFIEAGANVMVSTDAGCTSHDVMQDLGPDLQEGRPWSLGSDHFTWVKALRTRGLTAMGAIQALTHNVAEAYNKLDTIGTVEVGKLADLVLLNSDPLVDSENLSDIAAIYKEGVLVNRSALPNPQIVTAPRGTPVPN
Experiment: HPLC at […] nm of piperic acid formation, Michaelis-Menten fit
Assay type: biochemical
Conditions: 50 mM potassium phosphate pH 7.5, 28 °C, 1 min, 0.116 μM PipM, 0.001-0.5 mM piperine

Km: 2.11 ± 0.31 µM
SMILES: O=C(/C=C/C=C/c1ccc2c(c1)OCO2)N1CCCCC1 [piperine]
